ChEMBL document CHEMBL1129715, “Synthesis and biological evaluation of hybrid molecules containing the pyrroloquinoline nucleus and DNA-minor groove binders” (1996)
Values after ≈ are worked out from the molar mass of the structure shown.

Assays:
Assay type in all cases: functional
L1210/Adr = experiment: In vitro cytotoxicity against L1210/Adr cancer cell lines.; conditions: Mus musculus, read-out: TD50 (the source's name)
HCT-116 = experiment: In vitro cytotoxicity against HCT116 cancer cell lines.; conditions: Homo sapiens, read-out: TD50 (the source's name)
KB = experiment: In vitro cytotoxicity against KB cancer cell lines.; conditions: Homo sapiens, read-out: TD50 (the source's name)
CHO = experiment: In vitro cytotoxicity against CHO cancer cell lines.; conditions: Cricetulus griseus, read-out: TD50 (the source's name)
MCF7 = experiment: In vitro cytotoxicity against MCF-7 cancer cell lines.; conditions: Homo sapiens, read-out: TD50 (the source's name)
L1210 = experiment: In vitro cytotoxicity against L1210 cancer cell lines.; conditions: Mus musculus, read-out: TD50 (the source's name)

Structure (SMILES) | CC50 (L1210/Adr) [µg/mL] | CC50 (HCT-116) [µg/mL] | CC50 (KB) [µg/mL] | CC50 (CHO) [µg/mL] | CC50 (MCF7) [µg/mL] | CC50 (L1210) [µg/mL]
CCOC(=O)c1cc(NC2=CC3=NCCc4cn(C)c(c43)C2=O)cn1COC | 1 (≈ 2.61 µM) | 0.4 (≈ 1.05 µM) | 0.5 (≈ 1.31 µM) | 0.7 (≈ 1.83 µM) | 0.5 (≈ 1.31 µM) | 2 (≈ 5.23 µM)
COCn1cc(NC(=O)c2cc(NC(=O)c3cc(NC4=CC5=NCCc6cn(C)c(c65)C4=O)cn3COC)cn2COC)cc1C(=O)NCCCN(C)C | 2.8 (≈ 3.77 µM) | 2.1 (≈ 2.83 µM) | 0.4 (≈ 0.538 µM) | 0.9 (≈ 1.21 µM) | 0.2 (≈ 0.269 µM) | 3.3 (≈ 4.44 µM)
CCOC(=O)c1cc(NC(=O)c2cc(NC(=O)c3cc(NC4=CC5=NCCc6cn(C)c(c65)C4=O)cn3COC)cn2COC)cn1COC | 2.5 (≈ 3.64 µM) | 5.2 (≈ 7.57 µM) | 1.4 (≈ 2.04 µM) | 4.9 (≈ 7.14 µM) | 4.7 (≈ 6.84 µM) | 1.3 (≈ 1.89 µM)
COCn1cc(NC2=CC3=NCCc4cn(C)c(c43)C2=O)cc1C(=O)NCCCN(C)C | 2.5 (≈ 5.7 µM) | 5.8 (≈ 13.2 µM) | 0.5 (≈ 1.14 µM) | 49.2 (≈ 112 µM) | 0.4 (≈ 0.912 µM) | 3.8 (≈ 8.67 µM)
COCn1cc(NC(=O)c2cc(NC3=CC4=NCCc5cn(C)c(c54)C3=O)cn2COC)cc1C(=O)NCCCN(C)C | 3.8 (≈ 6.43 µM) | 6.1 (≈ 10.3 µM) | 1.9 (≈ 3.22 µM) | 17.5 (≈ 29.6 µM) | 0.5 (≈ 0.846 µM) | 8.2 (≈ 13.9 µM)
CCOC(=O)c1cc(NC(=O)c2cc(NC3=CC4=NCCc5cn(C)c(c54)C3=O)cn2COC)cn1COC | 3.3 (≈ 6.17 µM) | 1.7 (≈ 3.18 µM) | 2.3 (≈ 4.3 µM) | 4.2 (≈ 7.86 µM) | 3.3 (≈ 6.17 µM) | 4.9 (≈ 9.17 µM)
COc1cccc2c1C(=O)c1c(O)c3c(c(O)c1C2=O)C[C@@](O)(C(=O)CO)C[C@@H]3O[C@H]1C[C@H](N)[C@H](O)[C@H](C)O1 [DOXORUBICIN] | 0.3 (≈ 0.552 µM) | 0.17 (≈ 0.313 µM) | 0.02 (≈ 0.0368 µM) | 0.05 (≈ 0.092 µM) | 0.2 (≈ 0.368 µM) | 0.02 (≈ 0.0368 µM)
